Laboratory results: patent US11884686B2, “Chelate compounds” (priority 2016, dated 2024)
“Also recorded” adds a separate entry of the source.

Assays:
[1] = Dissociation kinetics via Cu2+ transmetallation (UV-Vis absorbance); format: physicochemical; conditions: for overall kinetic inertness: Cu2+ and Zn2+ transmetallation, all experimental conditions; for nature of the kinetic dissociation curve, Cu2+ exchange: UV-Vis absorbance at 300 nm, all pH and Cu2+ concentrations assessed; for kobs1 / kobs2: 25° C., 0.2 mM chelate; for conversion of Mn chelate during transmetallation: competing Cu2+, FIGS. 9 and 10
Method: Kinetic inertness was evaluated at slightly acidic pH due to the slow rate of dissociation of the paramagnetic complex at physiological pH and to the potential hydrolysis of the metal ions at the concentrations used for the experiments and at pH values close to physiological.
The dissociation kinetics of the prior art Mn Chelate, Mn Chelate 4 and Mn Chelate 3 at a concentration of 0.2 mM was assessed via Cu^2+ transmetallation recording the time-dependent change of the UV-Vis absorbance in the presence of an excess of competing metal ion (10 and 40 equivalents of Cu^2+); at 25° C. and different pH (pH: 5.0; 5.2; 5.4). For all assessments, the reaction mixture contained 0.15 M NaCl; 50 mM NMP. The ? for the acquisition of the UV-Vis spectra was selected based on the difference between the observed absorbance for the Mn(II) based chelates (e.g., prior art Mn Chelate, Mn Chelate 3 and Mn Chelate 4) and the newly formed Cu^2+-complex in order to have the best differentiation between the two chemical species. The UV-Vis spectra were acquired at ? =300 nm on a Perkin-Elmer Lambda 19 spectrophotometer. Indeed, the displacement of Mn(II) ion induced by Cu^2+ led to an increase of the observed absorbance at ? =300 nm for all Mn(II) based chelates in all experimental conditions. This increase is due the formation of the Cu^2+-complex.
For any of the transmetallation experiments carried out with the prior art Mn Chelate (e.g., at different pH; different Zn^2+ or Cu^2+ concentration) it was evident that the variation of the relaxation rate T1 (for the Zn^2+-exchange; FIG. 4) or the variation of the UV-Vis absorbance (for the Cu^2+-exchange; FIG. 5) caused by competing metal ion was a “single phase” process better described as a mono-exponential function. […] The rate of dissociation described by kobs was calculated via equation (1) where [MnL]tot is the total concentration of Mn(II) based chelates and t is the observation time.
These biphasic kinetic curves could be mathematically well fitted with the biexponential equation (2) where A is the observed absorbance; b, A1 and A2 are constants specific for the biphasic dissociation process for a Mn(II) based chelate; kobs1 and kobs2 are the rate constants describing the biphasic dissociation and t is the observation time. A=b−A1e^−k^obs1^t−A2e^−k^obs2t (Equation 2)
The rates of the biphasic dissociation for Mn Chelate 3 and Mn Chelate 4 described by kobs1 and kobs2 and of the monophasic dissociation for the prior art Mn Chelate described by kobs were calculated via equation (2) and (1) respectively for the different experimental conditions utilized in the set of experiments.
From the qualitative comparison of the kinetic curves and preliminary kobs it was evident that Mn Chelate 3 and Mn Chelate 4 dissociate with a different mechanism described by a biexponential function and at a slower rate compared to the prior art Mn Chelate. To quantitatively compare the kinetic inertness of these Mn(II) based chelates, the direct comparison of the evolution of the UV-Vis absorbance at 300 nm was recorded for the Cu^2+ exchange reaction. Direct comparison of the UV-Vis absorbance allowed quantification of the conversion of the Mn(II) based chelates into Cu^2+ based chelates during the transmetallation reaction which can be correlated to the kinetic inertness of the Mn(II) complex. The “conversion” was calculated following equation (3), where At is the absorbance at a time t (or end of the reaction), A0 is the absorbance at time zero (or beginning of the acquisition) and Aeq is the absorbance at the equilibrium.

1H NMRD profiles = format: physicochemical; conditions: 0.01 to 80 MHz, pH 6.9
Method: Both the longitudinal and transverse relaxation times were measured in human serum (BioreclamationIVT, Cat #HMSRM-M) to reflect the efficiency of the Mn(II) based chelates in an environment close to physiological. The relaxivity assessment was carried out at a concentration ranging from 5 to 0 mM Mn(II), at 40° C. using a Minispec Mq benchtop NMR relaxometer (Bruker Instruments, Rheinstetten, Germany) operating at 60 MHz (1.4 T) with an inversion recovery pulse sequence. The longitudinal and transverse relaxivities of the complexes (e.g., r1 and r2 respectively) were calculated by plotting the reciprocal of their relaxation time versus the manganese concentration as determined via ICP-MS (Spectro Arcos FHS12, S/N 10003910 or S/N 12006120) for each Mn(II) based chelates. The dependence of T1 by B0 (i.e., magnetic field) applied was assessed via the acquisition of ^1H Nuclear Magnetic Relaxation Dispersion (NMRD) profiles. […] The temperature was monitored by a VTC91 temperature control unit and maintained by a gas flow. The temperature was determined by previous calibration with a Pt resistance temperature probe. High field relaxivities were measured on a Bruker AVANCE NMR spectrometer at 400 MHz. […]

Compound	overall kinetic inertness [1]	nature of the kinetic dissociation curve, Cu2+ exchange [1]	kobs1 ([1]; pH = 5.0, CCu2+ 0.002 M) [min⁻¹]	kobs2 ([1]; pH = 5.0, CCu2+ 0.002 M) [min⁻¹]	kobs1 ([1]; pH = 5.0, CCu2+ 0.008 M) [min⁻¹]	kobs2 ([1]; pH = 5.0, CCu2+ 0.008 M) [min⁻¹]	kobs1 ([1]; pH = 5.2, CCu2+ 0.002 M) [min⁻¹]	kobs2 ([1]; pH = 5.2, CCu2+ 0.002 M) [min⁻¹]	1H NMRD profile (1H NMRD profiles)	conversion of Mn chelate during transmetallation [1]	kobs1 ([1]; pH = 5.4, CCu2+ 0.002 M) [min⁻¹]	kobs2 ([1]; pH = 5.4, CCu2+ 0.002 M) [min⁻¹]
CN(C[C@H](O)[C@@H](O)[C@H](O)[C@H](O)CO)C(=O)CCCN1CCN2Cc3cccc(n3)CN(CC1)C(CCC(=O)N(C)C[C@H](O)[C@@H](O)[C@H](O)[C@H](O)CO)C(=O)[O][Mn][O]C(=O)C2CCC(=O)N(C)C[C@H](O)[C@@H](O)[C@H](O)[C@H](O)CO (stereo partly drawn) [Mn Chelate 3]	evident improvement in overall kinetic inertness	biphasic nature	0.483	0.0023	0.378	0.0024	0.303	0.0015				
CN1CCN2Cc3cccc(n3)CN(CC1)C(CCC(=O)N(C)C[C@H](O)[C@@H](O)[C@H](O)[C@H](O)CO)C(=O)[O][Mn][O]C(=O)C2CCC(=O)N(C)C[C@H](O)[C@@H](O)[C@H](O)[C@H](O)CO (stereo partly drawn) [Mn Chelate 4]	evident improvement in overall kinetic inertness; also recorded: most kinetically inert compound examined	biphasic nature	0.340	0.0013	0.190	0.0009	0.240	0.0009	only one dispersion in the profile around 1 MHz; also recorded: small r1 hump in the frequency region between 60 and 80 MHz	dissociates even slower	0.201	0.001
CN1CCN2CC(=O)[O][Mn][O]C(=O)CN(CC1)Cc1cccc(n1)C2 [Prior Art Mn Chelate, reference compound]		single phase	0.034		0.035		0.022		only one dispersion in the profile around 1 MHz	reaches a full conversion at much shorter time point than Mn Chelate 3	0.017	
